Values quoted from earlier work in article PMC5348030 (Nature chemical biology, 2016).

Tested on: HIV integrase

residence time on its target: 4.8 min
SMILES: Cc1nnc(C(=O)NC(C)(C)c2nc(C(=O)NCc3ccc(F)cc3)c(O)c(=O)n2C)o1 [raltegravir]
